According to patent US7138233B2, “IN vitro sorting method” (Medical Research Council, priority 1997, dated 2006):

Assays:
[1] = system: E. coli S30 coupled in vitro transcription-translation system; test: Self-methylation of M.EcoRI gene in coupled in vitro transcription/translation, resistance to cleavage by EcoRI; assay type: biochemical; conditions: translation inhibited, in the presence of puromycin
Description: The PCR-amplified DNA-methylases genes described above are expressed in a prokaryotic in vitro coupled transcription/translation system designed for linear templates (Lesley et al., 1991). A commercial preparation of this system is used (E. coli S30 Extract System for Linear Templates; Promega) supplemented with T7 RNA polymerase and S-adenosyl methionine (SAM) at 80 μM concentration.
Methylation is assayed by measuring the resistance of DNA fragments labelled with DIG and biotin to cleavage by the cognate restriction enzyme using the Boehringer-Mannheim DIG-Biotin ELISA or with radioactively labelled DNA fragments and streptavidin coated magnetic beads. […] The absorbance (at 450 minus 650 nm) is measured after quenching with 0.5M H2SO4 (130 μl/well).
For the radioactive assay, the plasmids and PCR fragments described above are amplified by PCR using primers LMB2-Biotin (SEQ. ID. No. 9) and LMB3 and α-P^32-CTP to give P^32-labelled DNA fragments labelled at one end by biotin and which carry the T7 RNA polymerase promoter, the phage T7 gene 10 translational start site, the methyltransferase gene and the relevant M/R sites. […] The amount of radioactively-labelled DNA on the beads and in the supernatants is determined by scintillation. […]

[2] = system: coupled transcription-translation reaction; test: Production of active DHFR in a 2 hour coupled transcription-translation reaction; assay type: biochemical, E. coli; conditions: 0.1 mM, alone or in combination; 2 hour reaction

Molecule	resistance to cleavage by EcoRI [1]	inhibition of the production of active DHFR [2]
COc1ccc(C[C@H](N)C(=O)N[C@H]2[C@@H](O)[C@H](n3cnc4c(N(C)C)ncnc43)O[C@@H]2CO)cc1 [puromycin]	not observed	–
NADPH	–	does not cause any inhibition
